Experimental data published in patent publication US7049302B1, “Compositions of CPG and saponin adjuvants and uses thereof” (Antigenics Inc., priority 1998, dated 2006).

Columns and labels:
Assay type in all cases: in vivo, C57BL/6 mice
[1] = tested on: E.G7-OVA cells; test: 51Cr release CTL assay, splenocytes of OVA-immunized mice stimulated in vitro with denatured OVA; conditions: 1.25 μg QS-21 alone (suboptimal dose), with 25 μg OVA, FIG. 2
Experimental: C57BL/6 mice (5 per group, female, 8–10 weeks of age) were immunized by subcutaneous route at days 1, 15, and 29. The vaccines were 25 μg OVA antigen plus the indicated doses of adjuvant in a total volume of 0.2 ml phosphate-buffered saline. […] (Weiner, et al., Proc. Natl. Acad. Sci. 94:10833 (1997).) Splenocytes were removed at day 42 for use as effector cells in the CTL assay. They were stimulated in vitro for 6 days with mitomycin C-treated E.G7-OVA cells and then used in a standard ^51Cr release CTL assay. E.G7-OVA cells (loaded with ^51Cr) were used as target cells. The background lysis of EL4 cells (not transfected by OVA) was subtracted from the lysis of E.G7-OVA cells to obtain a percent (%) antigen-specific lysis.
Splenocytes from mice immunized as described in FIG. 1 were used in a CTL assay. Splenocytes were stimulated in vitro with denatured OVA for six days prior to use in the CTL assay. The assay was carried out against E.G7-OVA cells as described in Example 1.

[2] = tested on: E.G7-OVA cells; test: 51Cr release CTL assay, splenocytes of OVA-immunized mice stimulated in vitro with mitomycin C-treated E.G7-OVA cells; conditions: 1.25 μg QS-21 alone (suboptimal dose), with 25 μg OVA s.c. days 1, 15, 29; splenocytes day 42; FIG. 1
Experimental: C57BL/6 mice (5 per group, female, 8–10 weeks of age) were immunized by subcutaneous route at days 1, 15, and 29. The vaccines were 25 μg OVA antigen plus the indicated doses of adjuvant in a total volume of 0.2 ml phosphate-buffered saline. […] They were stimulated in vitro for 6 days with mitomycin C-treated E.G7-OVA cells and then used in a standard ^51Cr release CTL assay. E.G7-OVA cells (loaded with ^51Cr) were used as target cells. The background lysis of EL4 cells (not transfected by OVA) was subtracted from the lysis of E.G7-OVA cells to obtain a percent (%) antigen-specific lysis.

[3] = tested on: OVA; test: Serum IgG1 and IgG2a titers to OVA by EIA; conditions: sera day 42
Experimental: Serum titers to OVA were determined by EIA on sera collected on day 42 from the mice immunized as described in Example 1. IgG subclass IgG1 and IgG2a titers were determined for individual mice (5 mice per group) and are plotted as a geometric mean titer.

Substance: QS-21
- antigen-specific lysis (CTL) [1]: no lysis
- antigen-specific lysis (CTL) [2]: no lysis
- OVA-specific IgG1 titer, enhancement over the unadjuvanted group ([3]; 10 μg QS-21 alone, geometric mean titer, among the highest groups, FIG. 3): ~10 fold
- OVA-specific IgG2a response ([3]; any QS-21 dose used alone): not detected
